Experimental data reported in ChEMBL document CHEMBL5385880, “Design, synthesis and evaluation of the novel chalcone derivatives with 2,2-dimethylbenzopyran as HIF-1 inhibitors that possess anti-angiogenic potential” (Eur J Med Chem, 2023).
Activity calls are given as the source filed them. The rule behind the calls is not given here.

What was measured:
[1] = Metabolic stability in Sprague-Dawley rat liver microsomes assessed as half life at 100 ug/ml measured upto 120 mins in presence of NADPH generating system by HPLC analysis; format: ADME, Microsome; conditions: dose 100 µg/ml
[2] = Subchronic toxicity in Kunming mouse assessed as side effects at 50 mg/kg administered via oral gavage measured upto 10 days; format: organism-based; conditions: in vivo, 240 h, time < 10 day
[3] = Cmax in Sprague-Dawley rat at 20 mg/kg, iv administered as single dose measured upto 6 hrs by HPLC analysis; format: ADME, organism-based; parameters: dose 20 mg/kg, time < 6 hrs, route iv; conditions: in vivo
[4] = Metabolic stability in Sprague-Dawley rat liver microsomes at 100 ug/ml measured after 120 mins in presence of NADPH generating system by HPLC analysis; format: ADME, Microsome; conditions: at 100 µg/mL, read-out: Stability
Mus musculus [5] = assay: Anti-angiogenesis activity in VEGF stimulated C57/bl6 mouse implanted with matrigel assessed as appearance of hemoglobin content in matrigel plug at 1.25 to 20 uM measured after 10 days; format: functional, organism-based; conditions: dose 1.25-20 µM, time 10.0 day
[6] = Subchronic toxicity in Kunming mouse assessed as drug tolerance at 50 mg/kg administered via oral gavage measured upto 10 days; format: organism-based; conditions: in vivo, 240 h, time < 10 day
[7] = Metabolic stability in Sprague-Dawley rat liver microsomes at 100 ug/ml measured after 60 mins in presence of NADPH generating system by HPLC analysis; format: ADME, Microsome; conditions: at 100 µg/mL, read-out: Stability
[8] = Metabolic stability in Sprague-Dawley rat liver microsomes at 100 ug/ml measured after 10 mins in presence of NADPH generating system by HPLC analysis; format: ADME, Microsome; conditions: at 100 µg/mL, read-out: Stability
[9] = Cytotoxicity against human HUVEC cells assessed as reduction in cell growth incubated for 48 hrs by CCK-8 method; format: toxicity, cell-based
[10] = Subchronic toxicity in Kunming mouse assessed as effect on apparent behavior problem at 50 mg/kg administered via oral gavage measured upto 10 days; format: organism-based; conditions: in vivo, 240 h, time < 10 day
A549 [11] = assay: Cytotoxicity against human A549 cells assessed as reduction in cell growth incubated for 48 hrs by CCK-8 method; format: functional, cell-based
[12] = Subchronic toxicity in Kunming mouse assessed as adverse events at 50 mg/kg administered via oral gavage measured upto 10 days; format: organism-based; conditions: in vivo, 240 h, time < 10 day
Mus musculus [13] = organism: Mus musculus; assay: Anti-angiogenesis activity in VEGF stimulated C57/bl6 mouse assessed as formation of new blood vessels at 20 uM measured after 10 days; format: functional, organism-based; conditions: time 10.0 day
[14] = AUC (0 to infinity) in Sprague-Dawley rat at 20 mg/kg, iv administered as single dose measured upto 6 hrs by HPLC analysis; format: ADME, organism-based; parameters: time < 6 hrs, dose 20 mg/kg, route iv; conditions: in vivo
Mus musculus [15] = organism: Mus musculus; assay: Anti-angiogenesis activity in VEGF stimulated C57/bl6 mouse assessed as decrease in number of blood vessels at 1.25 to 20 uM measured after 10 days; format: functional, organism-based; conditions: dose 1.25-20 µM, time 10.0 day
[16] = Clearance in Sprague-Dawley rat at 20 mg/kg, iv administered as single dose measured upto 6 hrs by HPLC analysis; format: ADME, organism-based; conditions: in vivo
A549 [17] = assay: Inhibition of cell invasion in human A549 cells at 0 to 4 uM measured after 24 hrs by calcein-AM staining transwell invasion assay; format: functional, cell-based; conditions: dose 0-4 µM
[18] = Tmax in Sprague-Dawley rat at 20 mg/kg, iv administered as single dose measured upto 6 hrs by HPLC analysis; format: ADME, organism-based; conditions: in vivo
[19] = AUC (0 to t) in Sprague-Dawley rat at 20 mg/kg, iv administered as single dose measured upto 6 hrs by HPLC analysis; format: ADME, organism-based; parameters: dose 20 mg/kg, time < 6 hrs, route iv; conditions: in vivo
HUVEC [20] = assay: Antiangiogenic activity in HUVEC assessed as inhibition of VEGF-induced tube formation measured after 12 hrs by matrigel based analysis; format: functional, cell-based; conditions: Homo sapiens, dose 0-8 µM
A549 [21] = assay: Cytotoxicity against human A549 cells assessed as reduction in cell growth at 4 uM incubated for 48 hrs by CCK-8 method; format: functional, cell-based
[22] = Half life in Sprague-Dawley rat at 20 mg/kg, iv administered as single dose measured upto 6 hrs by HPLC analysis; format: ADME, organism-based; conditions: in vivo
A549 [23] = assay: Inhibition of VEGF induced cell invasion in human A549 cells measured after 24 hrs by calcein-AM staining transwell invasion assay; format: functional, cell-based; conditions: dose 0-4 µM
A549 [24] = assay: Antimigratory activity in human A549 cells assessed as decrease in cell migration at 4 uM incubated for 24 hrs by wound healing assay; format: functional, cell-based
HUVEC [25] = assay: Cytotoxicity against human HUVEC cells assessed as reduction in cell growth at 10 uM incubated for 48 hrs by CCK-8 method; format: toxicity, cell-based
[26] = Plasma protein binding in Sprague-Dawley rat assessed as free fraction by equilibrium dialysis analysis; format: ADME, cell-free
[27] = Subchronic toxicity in Kunming mouse assessed as effect on body weight at 50 mg/kg administered via oral gavage measured upto 10 days; format: organism-based; conditions: in vivo, 240 h, time < 10 day
[28] = Metabolic stability in Sprague-Dawley rat liver microsomes at 100 ug/ml measured after 30 mins in presence of NADPH generating system by HPLC analysis; format: ADME, Microsome; conditions: at 100 µg/mL, read-out: Stability
[29] = Apparent volume of distribution in Sprague-Dawley rat at 20 mg/kg, iv administered as single dose measured upto 6 hrs by HPLC analysis; format: ADME, organism-based; conditions: in vivo, read-out: Vz
T47D = assay: Cytotoxicity activity against human T47D cells; format: functional, cell-based

COc1ccc(/C=C/C(=O)c2ccc3c(c2O)C=CC(C)(C)O3)cc1OCCCN1CCCC1
half-life at 100 ug/ml [1]: 2.3 h | Activity [2]: Non-Toxic | Cmax [3]: 7.06 µM | remaining at 2 h, 100 ug/ml [4]: 51% | Activity (Mus musculus [5]): Active | Activity [6]: Non-Toxic | remaining at 1 h, 100 ug/ml [7]: 60% | remaining at 10 min, 100 ug/ml [8]: 90% | IC50 at 48 h [9]: 19.6 µM | IC20 at 48 h ([9]; time 48 hrs): 10.6 µM | Activity [10]: Non-Toxic | IC50 (A549 [11]; A549, 48 h): 8.88 µM | IC20 (A549 [11]; A549, time 48 hrs): 4.19 µM | Activity [12]: Non-Toxic | Activity (Mus musculus [13]): inactive | AUC(0-inf) [14]: 8.88 µM·h | Activity (Mus musculus [15]): Active | clearance [16]: 39.5 mL/min | inhibition (A549 [17]): Active | Tmax [18]: 1.98 min | AUC(0-t) at 6 h [19]: 5.27 µM·h | Activity (HUVEC [20]): Dose-Dependent Effect | Activity (A549 [21]): inactive | half-life [22]: 1.64 h | inhibition (A549 [23]): Dose-Dependent Effect | Activity (A549 [24]): Active | Activity (HUVEC [25]): Non-Toxic | fraction unbound [26]: 0.88 | Activity [27]: Non-Toxic | remaining at 0.5 h, 100 ug/ml [28]: 77% | Vd [29]: 5.59 L

COc1ccc([C@@H](O)[C@@H](C)Oc2ccc([C@H]3O[C@H](c4ccc(O[C@H](C)[C@H](O)c5ccc(OC)c(OC)c5)c(OC)c4)[C@H](C)[C@H]3C)cc2OC)cc1OC
IC50 (T47D): 0.003 µM
